5 cell lines from the supplement of paper PMC10307832 can be followed below.

Common to all, as to assay: relative viability (nuclei count vs DMSO), 5 days (fraction); higher = more cells survive
Compound in assay [1]: COc1cc2nc(N3CCCN(C)CC3)nc(NC3CCN(Cc4ccccc4)CC3)c2cc1OC + O=C(c1cc(Cc2n[nH]c(=O)c3ccccc23)ccc1F)N1CCN(C(=O)C2CC2)CC1 [Olaparib] (partner 8 µM)
The gist of the method:
(§1)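 Lung cancer cell lines were pin-tool dosed in 1536-well plates on the day after seeding, with either a lone drug or a fixed anchor-drug dose plus five library-drug doses (not always all listed) in √10 steps. Nuclei were counted on 4× images after 5 days. Relative viability is the ratio of treated-well to vehicle-well nuclei counts, with each value a median of duplicate plates.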

Compound in the assay “AZD6482 + Trametinib”: Cc1cc([C@@H](C)Nc2ccccc2C(=O)O)c2nc(N3CCOCC3)cc(=O)n2c1 [AZD6482] + CC(=O)Nc1cccc(-n2c(=O)n(C3CC3)c(=O)c3c(Nc4ccc(I)cc4F)n(C)c(=O)c(C)c32)c1 [Trametinib] (partner 0.02 µM)
The gist of the method:
as §1

Compound in the assay “AZD6482 + OSI-027”: Cc1cc([C@@H](C)Nc2ccccc2C(=O)O)c2nc(N3CCOCC3)cc(=O)n2c1 [AZD6482] + COc1cccc2cc(-c3nc([C@H]4CC[C@H](C(=O)O)CC4)n4ncnc(N)c34)[nH]c12 [OSI-027] (partner 0.5 µM)
The method in brief: as §1

Compound in the assay “AZD6482 + Crizotinib”: Cc1cc([C@@H](C)Nc2ccccc2C(=O)O)c2nc(N3CCOCC3)cc(=O)n2c1 [AZD6482] + C[C@@H](Oc1cc(-c2cnn(C3CCNCC3)c2)cnc1N)c1c(Cl)ccc(F)c1Cl [Crizotinib] (partner 1 µM)
The gist of the method: as §1

Regarding NCI-H322M, the relative viability in assay [1] (first compound 0.2 µM) amounted to 0.763; in assay [1] (first compound 0.6325 µM), 0.782; in assay [1] (first compound 2 µM), 0.771; in assay [1] (first compound 6.325 µM) it was 0.688; with AZD6482 + Trametinib (first compound 0.08 µM), 0.51; in the assay with AZD6482 + Trametinib (first compound 0.253 µM), 0.534. In addition, the relative viability with AZD6482 + Trametinib (first compound 0.8 µM) came out at 0.58; in the assay with AZD6482 + Trametinib (first compound 2.53 µM), 0.452; with AZD6482 + Trametinib (first compound 8 µM) it was 0.443; with AZD6482 + OSI-027 (first compound 0.08 µM) it was 0.523; with AZD6482 + OSI-027 (first compound 0.253 µM), 0.497; with AZD6482 + OSI-027 (first compound 0.8 µM) it was 0.531. For the same cell line, the relative viability came to 0.317 with AZD6482 + OSI-027 (first compound 2.53 µM); 0.414 in the assay with AZD6482 + OSI-027 (first compound 8 µM); 0.769 with AZD6482 + Crizotinib (first compound 0.08 µM); 0.826 with AZD6482 + Crizotinib (first compound 0.253 µM); 0.79 with AZD6482 + Crizotinib (first compound 0.8 µM); 0.627 in the assay with AZD6482 + Crizotinib (first compound 2.53 µM). In addition, the relative viability with AZD6482 + Crizotinib (first compound 8 µM) came to 0.741.

Consider NCI-H2170, for which the relative viability in assay [1] (first compound 0.2 µM) was 0.623; in assay [1] (first compound 0.6325 µM), 0.576; in assay [1] (first compound 2 µM), 0.675; in assay [1] (first compound 6.325 µM), 0.566; in the assay with AZD6482 + Trametinib (first compound 0.08 µM) it was 0.878; with AZD6482 + Trametinib (first compound 0.253 µM), 0.879. Also, the relative viability was determined as 0.844 in the assay with AZD6482 + Trametinib (first compound 0.8 µM); 0.836 in the assay with AZD6482 + Trametinib (first compound 2.53 µM); 0.733 with AZD6482 + Trametinib (first compound 8 µM); 0.66 with AZD6482 + OSI-027 (first compound 0.08 µM); 0.631 with AZD6482 + OSI-027 (first compound 0.253 µM); 0.612 with AZD6482 + OSI-027 (first compound 0.8 µM). For the same cell line, the relative viability with AZD6482 + OSI-027 (first compound 2.53 µM) was 0.531; in the assay with AZD6482 + OSI-027 (first compound 8 µM), 0.677; with AZD6482 + Crizotinib (first compound 0.08 µM), 1.11; in the assay with AZD6482 + Crizotinib (first compound 0.253 µM), 1.15; with AZD6482 + Crizotinib (first compound 0.8 µM), 1.23; in the assay with AZD6482 + Crizotinib (first compound 2.53 µM), 1.05. The relative viability with AZD6482 + Crizotinib (first compound 8 µM) was found to be 0.851.

NCI-H358: the relative viability was found to be 0.51 in assay [1] (first compound 0.2 µM); 0.628 in assay [1] (first compound 0.6325 µM); 0.644 in assay [1] (first compound 2 µM); 0.568 in assay [1] (first compound 6.325 µM); 0.133 with AZD6482 + Trametinib (first compound 0.08 µM); 0.131 with AZD6482 + Trametinib (first compound 0.253 µM). In addition, the relative viability worked out at 0.12 in the assay with AZD6482 + Trametinib (first compound 0.8 µM); 0.117 with AZD6482 + Trametinib (first compound 2.53 µM); 0.113 in the assay with AZD6482 + Trametinib (first compound 8 µM); 0.711 with AZD6482 + OSI-027 (first compound 0.08 µM); 0.557 with AZD6482 + OSI-027 (first compound 0.253 µM); 0.662 with AZD6482 + OSI-027 (first compound 0.8 µM). Besides, the relative viability with AZD6482 + OSI-027 (first compound 2.53 µM) worked out at 0.257; in the assay with AZD6482 + OSI-027 (first compound 8 µM), 0.312; with AZD6482 + Crizotinib (first compound 0.08 µM), 0.514; with AZD6482 + Crizotinib (first compound 0.253 µM), 0.592; with AZD6482 + Crizotinib (first compound 0.8 µM) it was 0.566; with AZD6482 + Crizotinib (first compound 2.53 µM) it was 0.417. Besides, the relative viability with AZD6482 + Crizotinib (first compound 8 µM) was found to be 0.383.

In the case of NCI-H838, the relative viability worked out at 0.762 in assay [1] (first compound 0.2 µM); 0.717 in assay [1] (first compound 0.6325 µM); 0.791 in assay [1] (first compound 2 µM); 0.777 in assay [1] (first compound 6.325 µM); 0.419 with AZD6482 + Trametinib (first compound 0.08 µM); 0.494 with AZD6482 + Trametinib (first compound 0.253 µM). Further, the relative viability with AZD6482 + Trametinib (first compound 0.8 µM) is 0.451; in the assay with AZD6482 + Trametinib (first compound 2.53 µM), 0.316; with AZD6482 + Trametinib (first compound 8 µM) it was 0.336; in the assay with AZD6482 + OSI-027 (first compound 0.08 µM), 0.334; with AZD6482 + OSI-027 (first compound 0.253 µM), 0.378; with AZD6482 + OSI-027 (first compound 0.8 µM), 0.355. Also, the relative viability turned out to be 0.199 with AZD6482 + OSI-027 (first compound 2.53 µM); 0.27 in the assay with AZD6482 + OSI-027 (first compound 8 µM); 0.593 in the assay with AZD6482 + Crizotinib (first compound 0.08 µM); 0.824 in the assay with AZD6482 + Crizotinib (first compound 0.253 µM); 0.689 in the assay with AZD6482 + Crizotinib (first compound 0.8 µM); 0.48 with AZD6482 + Crizotinib (first compound 2.53 µM). The relative viability with AZD6482 + Crizotinib (first compound 8 µM) was 0.583.

Regarding CAL-12T, the relative viability in assay [1] (first compound 0.2 µM) stood at 0.676; in assay [1] (first compound 0.6325 µM) it was 0.689; in assay [1] (first compound 2 µM), 0.8; in assay [1] (first compound 6.325 µM), 0.699; with AZD6482 + Trametinib (first compound 0.08 µM), 0.308; with AZD6482 + Trametinib (first compound 0.253 µM), 0.276. Besides, the relative viability was found to be 0.234 with AZD6482 + Trametinib (first compound 0.8 µM); 0.185 with AZD6482 + Trametinib (first compound 2.53 µM); 0.302 with AZD6482 + Trametinib (first compound 8 µM); 0.706 in the assay with AZD6482 + OSI-027 (first compound 0.08 µM); 0.715 with AZD6482 + OSI-027 (first compound 0.253 µM); 0.519 in the assay with AZD6482 + OSI-027 (first compound 0.8 µM). Further, the relative viability came out at 0.348 with AZD6482 + OSI-027 (first compound 2.53 µM); 0.342 with AZD6482 + OSI-027 (first compound 8 µM); 0.572 with AZD6482 + Crizotinib (first compound 0.08 µM); 0.662 with AZD6482 + Crizotinib (first compound 0.253 µM); 0.853 with AZD6482 + Crizotinib (first compound 0.8 µM); 0.455 in the assay with AZD6482 + Crizotinib (first compound 2.53 µM). Further, the relative viability in the assay with AZD6482 + Crizotinib (first compound 8 µM) turned out to be 0.794.
